In the assay the target is T1, MLLT1 (Mus musculus, UniProt F6UGX7).
T1 construct: endogenous in cells; host or cells: NIH/3T3 (ATCC CRL-1658)
T1 sequence (F6UGX7 1-547): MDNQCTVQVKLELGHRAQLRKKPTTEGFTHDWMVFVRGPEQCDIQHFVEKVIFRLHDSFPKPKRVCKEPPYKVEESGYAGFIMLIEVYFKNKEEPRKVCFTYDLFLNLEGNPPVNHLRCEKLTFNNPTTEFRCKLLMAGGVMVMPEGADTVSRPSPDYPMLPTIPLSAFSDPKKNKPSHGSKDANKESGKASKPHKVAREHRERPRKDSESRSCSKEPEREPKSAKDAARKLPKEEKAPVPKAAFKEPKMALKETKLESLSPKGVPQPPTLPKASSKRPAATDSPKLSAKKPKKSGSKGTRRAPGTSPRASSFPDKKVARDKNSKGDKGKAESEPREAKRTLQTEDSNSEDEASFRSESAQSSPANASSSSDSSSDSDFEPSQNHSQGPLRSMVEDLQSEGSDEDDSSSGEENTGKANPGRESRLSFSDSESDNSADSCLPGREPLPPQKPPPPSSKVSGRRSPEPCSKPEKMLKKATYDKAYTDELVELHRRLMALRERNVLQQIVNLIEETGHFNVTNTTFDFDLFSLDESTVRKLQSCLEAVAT
Kind of assay: MLLT1 degradation assay in NIH/3T3 cells (JESS, 5 h). The assay is classed as cell-based. As to the method: MLLT1 degradation efficacy of compounds was tested in an automated chemiluminescent detection system (JESS, Cat #004-650). NIH/3T3 (#CRL-1658, ATCC) were seeded at a density of 0.5 million cells/well in a cell culture treated 6-well cell culture plate in 2 mL of complete medium (DMEM+10% FBS+1× Penicillin-Streptomycin) and incubated at 37° C., 5% CO2. The next day, 10 mM DMSO stocks were prepared, and cells were treated with eight concentrations of test compound, starting from 100 nM, 5-fold dilution, at a final DMSO concentration of 0.1% and incubated for 5 h at 37° C., 5% CO2. Post incubation, cells were washed with HBSS and lysed in 70 μL of RIPA buffer supplemented with Protease inhibitors (sc-24948; Santa Cruz). Protein estimation was done using BCA protein assay kit (23228; Pierce). […] Post run, data was analysed using “Compass for SW” software for chemiluminescent detection. […]
MLLT3 degradation efficacy of compounds was tested in an automated chemiluminescent detection system (JESS, Cat #004-650). […] Post run, data was analysed using “Compass for SW” software for chemiluminescent detection. […]

As usually defined, the DC50 is the concentration giving 50% degradation. Low readings indicate a more potent degrader, high ones a less potent degrader. As for `Cc1nn(CCCCCCCC#Cc2cccc3c2CN(C2CCC(=O)NC2=O)C3=O)c2cc(C(=O)Nc3cc4[nH]c([C@H]5CCCN5C)cc4cn3)ccc12` (mixture of isomers) [Example 1, 1-(9-(2-(2,6-dioxopiperidin-3-yl)-1-oxoisoindolin-4-yl)non-8-yn-1-yl)-3-methyl-N-(2-((R)-1-methylpyrrolidin-2-yl)-1H-pyrrolo[3,2-c]pyridin-6-yl)-1H-indazole-6-carboxamide], the Dmax (NIH3T3, read-out: MLLT1 Dmax in NIH/3T3 cells) worked out at 90%. Besides, the DC50 (NIH/3T3 cells, 5 h) is 1.4 nM.

These data come from patent US20260199484A1, “PROTAC DEGRADERS OF MLLT1 AND/OR MLLT3” (DARK BLUE THERAPEUTICS LTD, priority 2024, published 2026).
